Several values for one entry are separate records, joined by “and”; a condition that tells them apart may be missing. Equal entries are not always repeated.
Key:
Type in all cases: in vivo
[1] = system: OVCAR-8 human ovarian cancer model; experiment: OVCAR-8 human ovarian cancer subcutaneous xenograft tumor model; conditions: azvudine 1 mg/kg, paclitaxel 15 mg/kg, avastin 10 mg/kg, combinations 1 + 15 and 1 + 10 mg/kg; for T/C (%) / TGI (%) / Tumor volume (x ± S): 34th day after grouping; for average tumor volume: 34th day of administration
Protocol: (§1) OVCAR-8 cells were cultured in RPMI1640 medium containing 10% fetal bovine serum. OVCAR-8 cells in the exponential growth phase were collected, resuspended in PBS to an appropriate concentration and mixed with Matrigel at a ratio of 1:1. The resulting mixture was used for subcutaneous inoculation of tumor in mice.
1×10^7 OVCAR-8 cells were inoculated subcutaneously on the right side of female mice. When the average tumor volume achieved 174.25 mm^3, the mice were randomly divided into groups according to tumor size.
The experimental protocols for animal experiments in this experiment were reviewed and approved by the CrownBio IACUC committee. During the experiment, the animal experiments were performed in accordance with the requirements of AAALAC. After tumor inoculation was completed, the impact of tumor growth and treatment on normal behavior of animals was routinely monitored, specifically the activity of experimental animals, food intake and water intake, body weight gain or loss (body weight was measured twice a week), eye, hair and other abnormalities. The clinical symptoms observed during the experiment were recorded in the original data. The tumor volume was calculated according to the following formula: tumor volume (mm^3)=½×(a×b^2) (where a represents long diameter and b represents short diameter).
Relative tumor proliferation rate, T/C %, refers to the percentage value of the relative tumor volume or tumor weight of the treatment group and the control group at a certain time point, which was calculated as follows: • T/C %=TRTV/CRTV×100% (TRTV: the average RTV of the treatment group; CRTV: the average RTV of the vehicle control group; RTV=Vt/V0, where V0 is the tumor volume of the animal when grouped, and Vt is the tumor volume of the animal after treatment); • or T/C %=TTW/CTW×100% (TTW: the average tumor weight of the treatment group at the end of the experiment; CTW: the average tumor weight of the vehicle control group at the end of the experiment).
Relative tumor inhibition rate, TGI (%), was calculated according to the formula as follows: TGI %=(1−T/C)×100%. (T and C are the relative tumor volumes (RTV) or tumor weights (TW) of the treatment group and the control group at a specific time point).
To compare tumor volumes of different treatment groups on a given day, first the assumption of homogeneity of variance among all groups was tested using the Bartlett test. When the p-value of Bartlett's test was not less than 0.05, whether all group means were equal was tested using one-way ANOVA. If the p-value of the one-way ANOVA was less than 0.05, pairwise comparisons among all groups were conducted using Tukey's HSD test, or pairwise comparisons between each treatment group and control group were conducted using Dunnett's t-test. When the p-value of Bartlett's test was less than 0.05, whether the medians of all groups were equal was tested using Kruskal Wallis test. If the p-value of the Kruskal Wallis test was less than 0.05, pairwise comparisons among all groups or between each treatment group and control group were conducted using Conover test, and the corresponding p-value correction was performed according to the number of groups in the multiple test.

[2] = system: LoVo xenograft tumor model; experiment: LoVo human colon cancer subcutaneous xenograft tumor model; conditions: 21st day of administration, azvudine 1 mpk, capecitabine 400 mpk, combination 1 + 400 mpk; for Tumor volume (mm^3): BALB/c nude mice, p.o. QD x 3 weeks
Protocol: Human colon cancer cells LoVo (Cat. No.: ECACC-87060101) were cultured in vitro as a monolayer in F12K medium containing 10% fetal bovine serum, 100 U/mL penicillin and 100 μg/mL streptomycin, in a 37° C. and 5% CO2 incubator. The cells were routinely digested with trypsin-EDTA and passaged twice a week. When the cell saturation reached 80%-90% and the cell number achieved the requirement, the cells were collected, counted and inoculated.
0.1 mL)(10×10^6) of LoVo cells were subcutaneously inoculated on the right back of each mouse. The grouping administration was started when the average tumor volume reached about 147 mm^3.
The tumor volume changes and the tumor weight changes in each group (on the 21st day of administration) after administration of test drugs for treating BALB/c nude mice with Lovo cell subcutaneous xenograft tumor are shown in Table 5 and Table 6 respectively.

[3] = system: Colo 205 human colon cancer model; experiment: Colo 205 human colon cancer subcutaneous xenograft tumor model
Protocol: Experimental animals were 68 (48 plus 20 spare mice) BALB/c female nude mice, 7-8 weeks old (the age of mice at the time of tumor cell inoculation) and weighing 15.7-20.7 g, which were purchased from Beijing VitalRiver Experimental Animal Technology Co., Ltd. Breeding environment was SPF grade. The experimental animals were all kept in an independent ventilated box with constant temperature and humidity. The temperature of the breeding room was 20-26° C., the humidity was 40-70%. The breeding room was ventilated 10-20 times per hour. The alternating time of day and night was 12 h/12 h. The mice were continuously supplied with cobalt 60 radiation sterilized mouse complete pellet feed, and had free access to the feed. The mice drank tap water (available after sterilization with high-pressure steam), which was continuously supplied using a water-drinking bottle, and had free access to water. The mouse box was a polysulfone mouse box, which was used after sterilization under high pressure, with a size of 325 mm×210 mm×180 mm.
as §1, with “Colo 205” for “OVCAR-8”, “mice. 5×10^6 Colo 205 cells were subcutaneously inoculated on the right side of female mice. The day of inoculation was defined as Day 0. When the average tumor volume reached 110.26 mm^3, the mice were randomly divided into groups according to tumor size.” for “mice.”
Relative tumor proliferation rate, T/C %, refers to the percentage value of the relative tumor volume or tumor weight of the treatment group and the control group at a certain time point, which was calculated as follows:
T/C %=TRTV/CRTV×100% (TRTV: the average RTV of the treatment group; CRTV: the average RTV of the vehicle control group; RTV=Vt/V0, where V0 is the tumor volume of the animal when grouped, and Vt is the tumor volume of the animal after treatment); • or T/C %=TTW/CTW×100% (TTW: the average tumor weight of the treatment group at the end of the experiment; CTW: the average tumor weight of the vehicle control group at the end of the experiment). • Relative tumor inhibition rate, TGI (%), was calculated according to the formula as follows: TGI %=(1−T/C)×100%. (T and C are the relative tumor volumes (RTV) or tumor weights (TW) of the treatment group and the control group at a specific time point).

[4] = system: Daudi xenograft tumor model; experiment: Human Burkitt's lymphoma cell Daudi subcutaneous xenograft tumor model; conditions: combination 1 + 50 mg/kg; for Tumor volume (mm^3) on the 27th day: CB 17 SCID mice, QD x 4 weeks, azvudine 1 mg/kg p.o., cyclophosphamide 50 mg/kg i.p.
Protocol: (§2) Human Burkitt's lymphoma cells Daudi (Cat. No.: DSMZ-ACC129) were in vitro suspended and cultured in RPMI 1640 medium containing 10% fetal bovine serum, 2 mM glutamine, 100 U/mL penicillin and 100 μg/mL streptomycin, in a 37° C. and 5% CO2 incubator. When the cell saturation achieved 80%-90% and the cell number reached the requirement, the cells were collected, counted and inoculated.
0.2 mL (10×10^6) of Daudi cells (added with Matrigel at a volume ratio of 1:1) were subcutaneously inoculated on the right back of each mouse. The grouping administration was started when the average tumor volume reached about 100 mm^3.
The changes of tumor volume and tumor weight in each group after administration of test drugs for treating CB 17 SCID mice with Daudi cell subcutaneous xenograft tumor are shown in Table 8 and Table 9 respectively.

[5] = system: MOLT4 xenograft tumor model; experiment: Human acute lymphoblastic leukemia MOLT4 cell subcutaneous xenograft tumor model; conditions: combination 1 + 50 mg/kg; for Tumor volume (mm^3) on the 28th day: SCID Beige mice, QD x 4 weeks, azvudine 2 mg/kg in Table 10, cyclophosphamide 50 mg/kg i.p.
Protocol: as §2, with “acute lymphoblastic leukemia” for “Burkitt's lymphoma”, “MOLT4” for “Daudi”, “ECACC-85011413)” for “DSMZ-ACC129)”, “serum,” for “serum, 2 mM glutamine,”
0.2 mL (10×10^6) of MOLT4 cells (added with Matrigel at a volume ratio of 1:1) were subcutaneously inoculated on the right back of each mouse. The grouping administration was started when the average tumor volume reached about 148 mm^3.
The changes of tumor volume and tumor weight in each group after administration of test drugs for treating SCID Beige mice with MOLT4 cell subcutaneous xenograft tumor are shown in Table 10 and Table 11.

[6] = based on tumor volume, 25th day after inoculation, p.o. QD x 3 weeks, azvudine 1 mpk, capecitabine 400 mpk, combination 1 + 400 mpk
[7] = based on tumor weight, azvudine 1 mpk, capecitabine 400 mpk, combination 1 + 400 mpk
[8] = based on tumor volume, 27th day, azvudine 1 mg/kg, cyclophosphamide 50 mg/kg
[9] = based on tumor volume, 28th day, azvudine 2 mg/kg in Table 10, cyclophosphamide 50 mg/kg

## Avastin: positive drug avastin
[1]
  T/C (%): 82.30%
  TGI (%): 17.70%
  Tumor volume (x ± S): 456.04 ± 110.65(6)
  average tumor volume: 456.04 mm^3

## CCCCCOC(=O)Nc1nc(=O)n([C@@H]2O[C@H](C)[C@@H](O)[C@H]2O)cc1F [Capecitabine, capecitabine]
[2]
  Tumor volume (mm^3): 919 ± 190 mm^3
  Tumor weight: 0.893 ± 0.173 g
[2]; listed as capecitabine
  Tumor volume (mm^3): 919 mm^3
[2]; based on tumor volume
  T/C (%): 60.94%
  TGI (%): 42.11%
[2]; based on tumor volume, listed as capecitabine
  TGI (%): 42.11% and 42.1%
[2]; based on tumor weight
  T/C (%): 63.27%
[3]; 25th day after inoculation (20th day after grouping), BALB/c nude mice, p.o. QD x 3 weeks, azvudine 1 mpk, capecitabine 400 mpk, combination 1 + 400 mpk
  Tumor volume: 264.96 ± 38.65(6)
[3]; 25th day after tumor inoculation (20th day after grouping), azvudine 1 mg/kg, capecitabine 400 mg/kg, combination 1 + 400 mg/kg
  average tumor volume: 264.96 mm^3
[3]; [6]
  T/C (%): 18.07%
  TGI (%): 81.93%
[3]; [7]
  T/C (%): 85.92%
  TGI: 14.08
[3]; end of experiment, p.o. QD x 3 weeks, azvudine 1 mpk, capecitabine 400 mpk, combination 1 + 400 mpk
  Tumor weight (mg): 193.35 ± 28.54(6) mg

## CC(=O)O[C@H]1C(=O)[C@@]2(C)[C@H]([C@H](OC(=O)c3ccccc3)[C@]3(O)C[C@H](OC(=O)[C@H](O)[C@@H](NC(=O)c4ccccc4)c4ccccc4)C(C)=C1C3(C)C)[C@]1(OC(C)=O)CO[C@@H]1C[C@@H]2O [Paclitaxel, paclitaxel]
[1]
  T/C (%): 73.51%
  TGI (%): 26.49%
  Tumor volume (x ± S): 403.40 ± 69.43(6)
  average tumor volume: 403.40 mm^3
[1]; listed as paclitaxel
  TGI (%): 26.49% and 26.5%

## O=P1(N(CCCl)CCCl)NCCCO1 (centres unmarked) [Cyclophosphamide, cyclophosphamide]
[4]; 27th day of administration
  Tumor volume (mm^3) on the 27th day: 263 ± 54 mm^3
[4]; 27th day of administration, listed as cyclophosphamide
  Tumor volume (mm^3) on the 27th day: 263 mm^3
[4]; 27th day of administration, azvudine 1 mg/kg, cyclophosphamide 50 mg/kg
  Tumor weight (g) (On the 27th day): 0.343 ± 0.066 g
[4]; [8]
  T/C (%): 8.83%
  TGI (%): 94.17%
[4]; based on tumor weight, 27th day, azvudine 1 mg/kg, cyclophosphamide 50 mg/kg
  T/Cweight (%): 11.49%
[5]; 28th day of administration
  Tumor volume (mm^3) on the 28th day: 716 ± 76 mm^3
[5]; 28th day of administration, listed as cyclophosphamide CTX
  Tumor volume (mm^3) on the 28th day: 716 mm^3
[5]; 28th day of administration, azvudine 1 mg/kg, cyclophosphamide 50 mg/kg
  Tumor weight (g) (On the 28th day): 0.822 ± 0.065 g
[5]; [9]
  T/C (%): 24.53%
  TGI (%): 79.34%
[5]; based on tumor weight, 28th day, azvudine 1 mg/kg, cyclophosphamide 50 mg/kg
  T/Cweight (%): 27.65%

Source: patent publication US12268702B2, “Antitumor pharmaceutical composition comprising azvudine and chemotherapeutic agent” (HENAN GENUINE BIOTECH CO., LTD., priority 2023, dated 2025)
